Measured values: patent US5126227A, “High contrast photographic elements containing ballasted hydrophobic isothioureas” (priority 1990, dated 1992)

Test: Solubility stated in words
Assay type: physicochemical

Row | solubility (in words) | Structure (SMILES)
1 | highly soluble | N=C(N)SCCS(=O)(=O)O [Comparative test E]
2 | less soluble | N=C(N)SCCCS(=O)(=O)O [Comparative test F]
3 | less soluble | N=C(N)SCCCCS(=O)(=O)O [Comparative test G]
4 | less soluble | CC(CCSC(=N)N)S(=O)(=O)O (stereo not shown) [Comparative test H]
